Values of other authors as cited in US8273874B2, “Method of dynamic nuclear polarisation (DNP) and compounds and compositions for use in the method” (GE Healthcare AS, priority 2006, dated 2012).

Details: human full blood at 37° C.

CC(=O)[13C](=O)O [^13C1-pyruvate]
T1 relaxation: about 42 s
